The values that follow come from ChEMBL document CHEMBL4665629, “An optimised series of substituted N-phenylpyrrolamides as DNA gyrase B inhibitors” (Eur J Med Chem, 2019).

Each structure is given as a SMILES string. Values after ≈ are worked out from the molar mass of the structure shown.

Test [1] deals with Klebsiella pneumoniae. The test can be described thus: Antibacterial activity against wild type Klebsiella pneumoniae ATCC 10031 harboring GyrA S83L mutant assessed as minimum inhibitory concentration required for >=90% inhibition of bacterial growth in presence of 10 ug/ml phenylalanine-arginine beta-naphthamide. In kind it is functional.
Test [2] addresses DNA gyrase (Staphylococcus aureus) (UniProt P0A0K8+P20831). Put plainly: Inhibition of Staphylococcus aureus DNA gyrase assessed as residual activity at 1 uM using biotinylated oligonucleotide as substrate incubated for 30 mins in presence of ATP by fluorescence-based microplate reader assay relative to control. In kind it is protein-complex assay.
Test [3] has as its system Escherichia coli. Put plainly: Antibacterial activity against wild type Escherichia coli MG1655 assessed as minimum inhibitory concentration required for >=90% inhibition of bacterial growth in presence of 50 ug/ml phenylalanine-arginine beta-naphthylamide. The format is functional.
The test system of test [4] is Escherichia coli. The test can be described thus: Antibacterial activity against Escherichia coli MG1655 harboring […] mutant assessed as minimum inhibitory concentration required for >=90% inhibition of bacterial growth in presence of 50 ug/ml phenylalanine-arginine beta-naphthylamide. In kind it is functional.
The target in a further test is DNA gyrase (Escherichia coli, UniProt P0AES4+P0AES6). Put plainly: Inhibition of Escherichia coli DNA gyrase assessed as conversion of NADH to NAD+ by ATPase assay. The format is protein-complex assay.
In test [5] the test system is Escherichia coli. Put plainly: Antibacterial activity against Escherichia coli ATCC 25922 assessed as minimum inhibitory concentration required for >=90% inhibition of bacterial growth by CLSI protocol based broth microdilution assay. In kind it is functional.
For test [6], the system named is Klebsiella pneumoniae. The test can be described thus: Antibacterial activity against Klebsiella pneumoniae ATCC 700603 assessed as bacterial growth inhibition at 50 uM incubated for 24 hrs by CLSI protocol based broth microdilution assay relative to control. In kind it is functional.
The subject of test [7] is Klebsiella pneumoniae. The test can be described thus: Antibacterial activity against wild type Klebsiella pneumoniae ATCC 10031 assessed as minimum inhibitory concentration required for >=90% inhibition of bacterial growth in presence of 10 ug/ml phenylalanine-arginine beta-naphthamide. In kind it is functional.
Test [8] concerns Staphylococcus aureus. Put plainly: Antibacterial activity against Staphylococcus aureus ATCC 29213 assessed as bacterial growth inhibition at 50 uM incubated for 24 hrs by CLSI protocol based broth microdilution assay relative to control. In kind it is functional.
Test [9] has as its system Escherichia coli. Put plainly: Antibacterial activity against Escherichia coli MG1655 harboring […]/D87N mutant assessed as minimum inhibitory concentration required for >=90% inhibition of bacterial growth in presence of 50 ug/ml phenylalanine-arginine beta-naphthylamide. In kind it is functional.
The test system of a further test is Acinetobacter baumannii. Put plainly: Antibacterial activity against Acinetobacter baumannii ATCC 19606 assessed as bacterial growth inhibition at 50 uM incubated for 24 hrs by CLSI protocol based broth microdilution assay relative to control. In kind it is functional. The settings on record: ATCC 19606 = CIP 70.34 = JCM 6841.
Test [10] deals with Klebsiella pneumoniae. The test can be described thus: Antibacterial activity against wild type Klebsiella pneumoniae ATCC 10031 harboring GyrA S83F mutant assessed as minimum inhibitory concentration required for >=90% inhibition of bacterial growth in presence of 10 ug/ml phenylalanine-arginine beta-naphthamide. In kind it is functional.
The test system of test [11] is Staphylococcus aureus. Put plainly: Antibacterial activity against […] Staphylococcus aureus ATCC 25923 assessed as minimum inhibitory concentration required for >=90% inhibition of bacterial growth by CLSI protocol based broth microdilution assay. In kind it is functional.
The test system of test [12] is Staphylococcus aureus. The test can be described thus: Antibacterial activity against Staphylococcus aureus ATCC 29213 assessed as minimum inhibitory concentration required for >=90% inhibition of bacterial growth by CLSI protocol based broth microdilution assay. The format is functional.

Sequence of DNA gyrase (Staphylococcus aureus) (P0A0K8 2-644 limits assumed): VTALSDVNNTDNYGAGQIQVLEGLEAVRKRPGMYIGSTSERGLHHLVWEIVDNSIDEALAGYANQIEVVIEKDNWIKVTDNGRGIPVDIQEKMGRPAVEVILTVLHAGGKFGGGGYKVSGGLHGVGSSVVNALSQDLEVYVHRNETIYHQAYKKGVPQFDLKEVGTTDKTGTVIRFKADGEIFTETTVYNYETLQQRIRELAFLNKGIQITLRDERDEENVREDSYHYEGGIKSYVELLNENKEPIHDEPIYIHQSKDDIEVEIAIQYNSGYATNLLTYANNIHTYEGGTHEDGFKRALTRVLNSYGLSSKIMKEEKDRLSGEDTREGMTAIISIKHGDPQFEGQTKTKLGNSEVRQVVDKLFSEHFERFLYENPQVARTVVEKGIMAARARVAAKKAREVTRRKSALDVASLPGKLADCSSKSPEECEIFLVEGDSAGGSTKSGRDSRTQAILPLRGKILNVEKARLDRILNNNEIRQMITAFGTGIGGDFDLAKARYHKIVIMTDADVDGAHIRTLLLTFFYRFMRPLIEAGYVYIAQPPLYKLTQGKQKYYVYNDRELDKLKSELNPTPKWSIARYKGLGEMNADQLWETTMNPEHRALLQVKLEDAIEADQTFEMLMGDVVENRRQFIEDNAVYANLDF
Sequence of DNA gyrase (Staphylococcus aureus) (P20831 whole entry partner): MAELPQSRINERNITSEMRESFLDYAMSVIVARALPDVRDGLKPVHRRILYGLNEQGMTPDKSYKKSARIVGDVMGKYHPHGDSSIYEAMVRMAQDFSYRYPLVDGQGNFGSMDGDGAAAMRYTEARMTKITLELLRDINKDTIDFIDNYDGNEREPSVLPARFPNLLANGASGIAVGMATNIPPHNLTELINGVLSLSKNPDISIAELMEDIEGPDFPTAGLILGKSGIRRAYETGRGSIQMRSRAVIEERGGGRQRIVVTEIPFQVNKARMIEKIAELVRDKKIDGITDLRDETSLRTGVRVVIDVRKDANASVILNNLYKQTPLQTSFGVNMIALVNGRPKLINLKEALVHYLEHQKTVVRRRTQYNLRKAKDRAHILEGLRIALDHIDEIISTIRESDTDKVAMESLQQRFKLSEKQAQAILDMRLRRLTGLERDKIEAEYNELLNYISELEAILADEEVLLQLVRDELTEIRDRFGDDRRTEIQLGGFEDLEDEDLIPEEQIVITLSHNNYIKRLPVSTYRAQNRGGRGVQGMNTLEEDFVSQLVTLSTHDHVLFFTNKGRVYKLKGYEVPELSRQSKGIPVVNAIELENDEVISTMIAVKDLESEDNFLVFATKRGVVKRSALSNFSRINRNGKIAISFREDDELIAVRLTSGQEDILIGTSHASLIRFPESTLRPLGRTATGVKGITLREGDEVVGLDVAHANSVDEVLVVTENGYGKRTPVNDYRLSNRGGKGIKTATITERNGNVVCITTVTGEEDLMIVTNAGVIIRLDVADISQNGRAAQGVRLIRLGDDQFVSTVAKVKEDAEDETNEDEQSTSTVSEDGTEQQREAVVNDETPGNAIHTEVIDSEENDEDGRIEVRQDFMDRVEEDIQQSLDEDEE

Turning to `CCn1cc(C(=O)O)c(=O)c2ccc(NC(=O)c3[nH]c(C)c(Cl)c3Cl)cc21`, the MIC with Klebsiella pneumoniae [1] was 1.2 µM; in the test with Escherichia coli [3], 2.5 µM; in the test with Escherichia coli [4] it was 2.5 µM; in the test with Escherichia coli [5] it was more than 32 µM; with Klebsiella pneumoniae [7], 1.2 µM; in the test with Escherichia coli [9], 2.5 µM. Also, the MIC in the test with Klebsiella pneumoniae [10] was determined as 1.2 µM; in the test with Staphylococcus aureus [11] it was 2.5 µM (≈ 1.02 µg/mL); in the test with Staphylococcus aureus [12] it was 0.78 µM (≈ 0.318 µg/mL). Besides, the Activity in test [2] was 90%. The IC50 at DNA gyrase came out at 1 µM. In addition, the inhibition at 50 µM stood at 7% in the test with Klebsiella pneumoniae [6], 100% in the test on Staphylococcus aureus [8] and 2% in the test with Acinetobacter baumannii.
